Data on eight compounds can be found in ChEMBL document CHEMBL4428058, “Hit-to-Lead Studies for the Antimalarial Tetrahydroisoquinolone Carboxanilides” (J Med Chem, 2016).

Common to all, as to format: ADME, Microsome
Data set [1] can be described thus: Drug metabolism in CD-1 mouse liver microsomes assessed as (3S,4S)-N-(3-chloro-4-hydroxyphenyl)-2-isobutyl-1-oxo-3-(thiophen-2-yl)-1,2,3,4-tetrahydroisoquinoline-4-carboxamide formation. For orientation: Liver microsomes are vesicles of endoplasmic reticulum, rich in cytochrome P450 enzymes.
Data set [2] is described as follows: Drug metabolism in CD-1 mouse liver microsomes assessed as oxidation at N-2 isobutyl group.
The nature of data set [3]: Half life in CD-1 mouse liver microsomes in presence of NADPH by UPLC-MS analysis. The following applies: for t1/2: mouse, microsomes.
Data set [4] can be described thus: Drug level in CD-1 mouse liver microsomes treated with (3S,4S)-N-(3-cyanophenyl)-2-isobutyl-1-oxo-3-(thiophen-2-yl)-1,2,3,4-tetrahydroisoquinoline-4-carboxamide.
A short description of data set [5]: Drug metabolism in CD-1 mouse liver microsomes assessed as ((3S,4S)-N-(3-hydroxyphenyl)-2-isobutyl-1-oxo-3-(thiophen-2-yl)-1,2,3,4-tetrahydroisoquinoline-4-carboxamide formation.
Data set [6] in a line: Drug level in CD-1 mouse liver microsomes treated with (3S,4S)-N-(3-chloro-4-methoxyphenyl)-2-isobutyl-1-oxo-3-(thiophen-2-yl)-1,2,3,4-tetrahydroisoquinoline-4-carboxamide.

With `COc1ccc(NC(=O)[C@H]2c3ccccc3C(=O)N(CC(C)C)[C@@H]2c2cccs2)cc1Cl` (racemic), the Drug metabolism entry in data set [1] and in data set [2] was “Metabolite_Detected” in each case. Besides, the half-life (as a rule, the time needed for the level to fall by half in the phase considered) in data set [3] (CD-1, mouse, liver microsomes) was less than 30 min.
`N#Cc1cc(NC(=O)[C@H]2c3ccccc3C(=O)N(CC(F)(F)F)[C@@H]2c2cccnc2)ccc1F` (relative stereo) [SJ-733]: in data set [3], the t1/2 worked out at 97.8 min.
As to `CC(C)CN1C(=O)c2ccccc2[C@H](C(=O)Nc2cccc(O)c2)[C@H]1c1cccs1` (relative stereo), the Drug metabolism entry in data set [4] is reported as “Metabolite_Detected”.
Turning to `N#Cc1cc(NC(=O)[C@H]2c3ccccc3C(=O)N(CC(F)(F)F)[C@@H]2c2cn[nH]c2)ccc1F` (relative stereo), the t1/2 in data set [3] was more than 240 min.
For `CC(C)CN1C(=O)c2ccccc2[C@H](C(=O)Nc2ccc(F)c(C#N)c2)[C@H]1c1cn[nH]c1` (racemic), the t1/2 in data set [3] turned out to be 19.8 min.
On the same count and under the same terms, in the case of `CC(C)CN1C(=O)c2ccccc2[C@H](C(=O)Nc2ccc(F)c(C#N)c2)[C@H]1c1ccc(C#N)s1` (racemic) it was 72.6 min.
Consider `CC(C)CN1C(=O)c2ccccc2[C@H](C(=O)Nc2cccc(C#N)c2)[C@H]1c1cccs1` (racemic), for which the Drug metabolism result in data set [5] and in data set [2] was “Metabolite_Detected” throughout. For the same compound, in data set [3], the t1/2 was determined as 16.8 min.
As for `CC(C)CN1C(=O)c2ccccc2[C@H](C(=O)Nc2ccc(O)c(Cl)c2)[C@H]1c1cccs1` (relative stereo), the Drug metabolism result in data set [6] is “Metabolite_Detected”.
